Measurements published in patent US11512056B2 (Anhui New Star Pharmaceutical Development Co., Ltd, priority 2018, dated 2022).
Where “and” joins values, the source holds several entries; their conditions need not be identical. Equal entries are not always repeated.

Columns and labels:
platelets (rabbit blood) = experiment: Inhibition of platelet aggregation in vitro (rabbit blood), ADP-induced, turbidimetric; type: cell-based, New Zealand white rabbits; settings: Oryctolagus cuniculus, rabbit PRP, ADP final concentration 10 μM
Text: Blood was collected from New Zealand white rabbits (body weight 1-1.5 kg). After the animal was anesthetized with 10% chloral hydrate, the animal was placed supinely on the rabbit board, precordial hair was cut off, and the skin was disinfected with iodine and alcohol. Touch with left hand the 3rd to 4th intercostal space on the left edge of the sternum. Chose the most obvious place for the puncture point. Held the syringe in right hand and insert the needle into the chest cavity. Inserted the needle into the heart and then draw out the blood when feel the heart beating through the needle. […] assay system with a total volume of 300 μL, that is, 280 μL of diluted PRP was taken and placed in a turbidimetric tube, and was incubated with 10 μL of drug or solvent control at 37° C. for 5 minutes, and then 10 μL of different inducers such ADP (final concentration 10 μM) were added to determine the maximum platelet aggregation rate within 5 minutes. Repeation was taken at least three times […].
Platelet-rich plasma (PRP) was obtained by centrifuging blood at 1200 rpm for 10 minutes, and platelet aggregation was measured as described above. […] The platelet density in PRP is counted with a hemocytometer and diluted with platelet-poor plasma (PPP). […]

human platelets [1] = experiment: Collagen-induced aggregation of human platelets (PRP, turbidimetric); type: cell-based
Description: Volunteers' whole blood was drawn from venous blood with 1:6 dextro-citrate ACD (85 mmol/L sodium citrate, 71.38 mmol/L citrate, 27.78 mmol/L glucose) for anticoagulation, and centrifuged at 300 g at room temperature for 10 Minutes, separate platelet rich plasma (PRP).
(§1) The turbidimetric platelet aggregation test was performed on the Chrono-Log Company's dual-channel optical platelet aggregation instrument. The speed of the icon recorder was set to 1 cm/min, and the aggregation curve was recorded. First, the platelet aggregator was preheated to 37° C., and 400 μL platelet suspension and stir bar were added to the turbidity tube, PPP was used as a reference, and traced the baseline under constant magnetic stirring at 37° C. After the baseline was stable, with the experiment plan, different concentrations of antagonist or other reagents were added to treat platelets for 2 minutes, and then inducer collagen was added to observe and record changes in the aggregation curve.
The platelet aggregation rate of the solvent control group was set to be 100%. The inhibitory effects of the compounds on normal human platelet aggregation induced by collagen at different concentrations were as follows: […]

human platelets [2] = experiment: Thrombin-induced human platelet aggregation (PRP, turbidimetric); type: cell-based; settings: for inhibition at 0.003 µM: concentration 0.003 μM; for IC50: read-out: IC50 on thrombin-induced platelet aggregation rate
Description: Volunteers' whole blood was drawn from venous blood with 1:6 D-citrate ACD (85 mmol/L sodium citrate, 71.38 mmol/L citrate, 27.78 mmol/L glucose) for anticoagulation, and centrifuged at 300 g at room temperature for 10 minutes, platelet rich plasma (PRP) was separated.
as §1, with “baseline is” for “baseline was”, “of antagonists” for “of antagonist”, “then the” for “then”, “inducer ADP” for “inducer collagen”

arterial thrombosis = experiment: SD male rat arteriovenous short circuit thrombosis model (A-V shunt); type: in vivo, male SD rats
Description: Cut the surgical wire with a length of 6 cm, weigh and recorded it on an analytical balance (about 2 mg dry weight), and placed it in a thick polyethylene tube with a length of 6 cm. Inserted a thin tube at each end of the thick tube spare. Male SD rats were intragastrically administered for 4 hours, anesthetized with pentobarbital 60 mg/kg, separated the common carotid artery and common jugular vein, connected the arteries and veins with the above polyethylene tube, opened the blood flow for 15 minutes, removed the surgical line and weighed (WW).

human platelets [3] = experiment: ADP-induced aggregation of human platelets (PRP, turbidimetric); type: cell-based; settings: for inhibition at 0.005 µM: concentration 0.005 μM; for inhibition at 0.01 µM: concentration 0.01 μM; for inhibition at 5 µM: concentration 5 μM; for inhibition at 10 µM: concentration 10 μM; for IC50: read-out: IC50 of compound on ADP-induced platelet aggregation rate
Description: Volunteers' whole blood was drawn from venous blood with 1:6 dextro-citrate ACD (85 mmol/L sodium citrate, 71.38 mmol/L citrate, 27.78 mmol/L glucose) for anticoagulation, and centrifuged at 300 g at room temperature for 10 minutes, platelet rich plasma (PRP) was separated.
The turbidimetric platelet aggregation test was performed on the Chrono-Log Company's dual-channel optical platelet aggregation instrument. The speed of the icon recorder was set to 1 cm/min, and the aggregation curve was recorded. First, the platelet aggregator was preheated to 37° C., 400 μL platelet suspension and stir bar were added to the turbidity tube, use PPP as a reference, and traced the baseline under constant magnetic stirring at 37° C. After the baseline was stable, with experiment plan, different concentrations of antagonists or other reagents were added to treat platelets for 2 minutes, and then the inducer ADP was added to observe and record changes in the aggregation curve.

[4] = 1 μg/ml collagen, concentration 0.01 μM, 0.01 µM
[5] = Homo sapiens, Platelet, 1 μg/ml collagen, concentration 3 μM, read-out: Aggregation inhibition rate %
[6] = Homo sapiens, Platelet, column 1, read-out: IC50 of compound on collagen-induced platelet aggregation rate
[7] = Homo sapiens, Platelet, column 2, read-out: IC50 of compound on collagen-induced platelet aggregation rate
[8] = Homo sapiens, Platelet, column 3, read-out: IC50 of compound on collagen-induced platelet aggregation rate
[9] = Homo sapiens, Platelet, 0.5 U/ml thrombin, read-out: Aggregation inhibition rate %
[10] = Homo sapiens, Platelet, 0.5 U/ml thrombin, concentration 0.01 μM, read-out: Aggregation inhibition rate %
[11] = Homo sapiens, Platelet, 0.5 U/ml thrombin, concentration 20 μM, read-out: Aggregation inhibition rate %
[12] = Homo sapiens, Platelet, column 1
[13] = Homo sapiens, Platelet, column 2
[14] = Homo sapiens, Platelet, column 3
[15] = 10 μM ADP, concentration 0.1 μM
[16] = Homo sapiens, Platelet, 10 μM ADP, read-out: Aggregation inhibition rate %
[17] = Homo sapiens, Platelet, 10 μM ADP, concentration 3 μM, read-out: Aggregation inhibition rate %

## CCC(=O)NC(=N)Nc1ccc(C2=NNC(=O)CC2C)cc1 (stereo not drawn)
Platelets (rabbit blood)
  IC50: 334 nM

## CC1CC(=O)NN=C1c1ccc(NC(=N)N)cc1 (stereo not drawn) [No. 1, 1-(4-(4-methyl-6-oxo-1,4,5,6-tetrahydropyridazin-3-yl)phenyl)guanidine]
Human platelets [1]; 1 μg/ml collagen
  inhibitory effect on platelet aggregation induced by collagen: significant inhibitory effect
Human platelets [1]; [4]
  Aggregation inhibition rate %: 8.96% and 10.94%
Human platelets [1]; 1 μg/ml collagen, concentration 0.3 μM, 0.3 µM
  Aggregation inhibition rate %: 79.10% and 44.78% and 54.69%
Human platelets [1]; 1 μg/ml collagen, concentration 1 μM, 1 µM
  Aggregation inhibition rate %: 80.59% and 95.31%
Human platelets [1]; Homo sapiens, Platelet, 1 μg/ml collagen, concentration 0.003 μM, read-out: Aggregation inhibition rate %
  inhibition at 0.003 µM: 5.97%
Human platelets [1]; Homo sapiens, Platelet, 1 μg/ml collagen, concentration 0.01 μM, read-out: Aggregation inhibition rate %
  inhibition at 0.01 µM: 10.4%
Human platelets [1]; Homo sapiens, Platelet, 1 μg/ml collagen, concentration 1 μM, read-out: Aggregation inhibition rate %
  inhibition at 1 µM: 95.9%
Human platelets [1]; [5]
  inhibition at 3 µM: 100%
Human platelets [1]; Homo sapiens, Platelet, 1 μg/ml collagen, read-out: IC50 on platelet aggregation induced by collagen
  IC50: 157 nM
Human platelets [1]; [6]
  IC50: 95 nM
Human platelets [1]; [7]
  IC50: 233 nM
Human platelets [1]; [8]
  IC50: 143 nM
Human platelets [2]; 0.5 U/ml thrombin, concentration 0.01 μM, 0.01 µM
  Aggregation inhibition rate %: 2.81%
Human platelets [2]; 0.5 U/ml thrombin, concentration 0.1 μM, 0.1 µM
  Aggregation inhibition rate %: 46.03% and 40.98% and 65.21%
Human platelets [2]; 0.5 U/ml thrombin, concentration 0.3 μM, 0.3 µM
  Aggregation inhibition rate %: 80.95% and 89.85%
Human platelets [2]; 0.5 U/ml thrombin, concentration 1 μM, 1 µM
  Aggregation inhibition rate %: 95.83% and 97.33%
Human platelets [2]; [9]
  inhibition at 0.003 µM: 0%
Human platelets [2]; [10]
  inhibition at 0.01 µM: 3.08%
Human platelets [2]; Homo sapiens, Platelet, 0.5 U/ml thrombin, concentration 0.3 μM, read-out: Aggregation inhibition rate %
  inhibition at 0.3 µM: 71.4%
Human platelets [2]; Homo sapiens, Platelet, 0.5 U/ml thrombin, concentration 1 μM, read-out: Aggregation inhibition rate %
  inhibition at 1 µM: 85.7%
Human platelets [2]; Homo sapiens, Platelet, 0.5 U/ml thrombin, concentration 3 μM, read-out: Aggregation inhibition rate %
  inhibition at 3 µM: 100%
Human platelets [2]; Homo sapiens, Platelet, 0.5 U/ml thrombin, concentration 10 μM, read-out: Aggregation inhibition rate %
  inhibition at 10 µM: 100%
Human platelets [2]; [11]
  inhibition at 20 µM: 100%
Human platelets [2]; [12]
  IC50: 194 nM
Human platelets [2]; [13]
  IC50: 140 nM
Human platelets [2]; [14]
  IC50: 78 nM
Platelets (rabbit blood)
  IC50: 197 nM
Arterial thrombosis; 10 mg/kg intragastric, 4 hours before, blood flow 15 minutes, individual values
  Thrombus wet weight: 11.7 mg and 11.5 mg and 12.1 mg
Arterial thrombosis; intragastric administration
  weight of arterial thrombus in rats: significantly reduced
Human platelets [3]; 10 μM ADP, concentration 0.03 μM, listed as Compound No.1
  Aggregation inhibition rate %: 17.39%
Human platelets [3]; 10 μM ADP, concentration 0.03 μM, listed as No.1 Compound
  Aggregation inhibition rate %: 49.01%
Human platelets [3]; [15]
  Aggregation inhibition rate %: 37.68%
Human platelets [3]; 10 μM ADP, concentration 0.3 μM, listed as Compound No.1
  Aggregation inhibition rate %: 39.13%
Human platelets [3]; 10 μM ADP, concentration 0.3 μM, listed as No.1 Compound
  Aggregation inhibition rate %: 62.74%
Human platelets [3]; 10 μM ADP, concentration 1 μM, listed as Compound No.1
  Aggregation inhibition rate %: 42.02%
Human platelets [3]; 10 μM ADP, concentration 1 μM, listed as No.1 Compound
  Aggregation inhibition rate %: 66.67%
Human platelets [3]; 10 μM ADP, concentration 3 μM
  Aggregation inhibition rate %: 51.88%
Human platelets [3]; [16]
  inhibition at 0.005 µM: 2.99%
  inhibition at 0.01 µM: 8.69%
  inhibition at 5 µM: 81.4%
  inhibition at 10 µM: 95.1%
Human platelets [3]; Homo sapiens, Platelet, 10 μM ADP, concentration 0.1 μM, read-out: Aggregation inhibition rate %
  inhibition at 0.1 µM: 43.1%
Human platelets [3]; [17]
  inhibition at 3 µM: 71.6%
Human platelets [3]; [12]
  IC50: 97 nM
Human platelets [3]; [13]
  IC50: 1080 nM
Human platelets [3]; [14]
  IC50: 154 nM

## CCCSc1nc(N[C@@H]2C[C@H]2c2ccc(F)c(F)c2)c2nnn([C@@H]3C[C@H](OCCO)[C@@H](O)[C@H]3O)c2n1 [Ticagrelor, reference compound]
Human platelets [1]; 1 μg/ml collagen, concentration 0.003 μM, 0.003 µM
  Aggregation inhibition rate %: 4.23% and 1.45%
Human platelets [1]; [4]
  Aggregation inhibition rate %: 8.69% and 2.98% and 9.86%
Human platelets [1]; 1 μg/ml collagen, concentration 0.03 μM, 0.03 µM
  Aggregation inhibition rate %: 8.95% and 15.49%
Human platelets [1]; 1 μg/ml collagen, concentration 3 μM, 3 µM
  Aggregation inhibition rate %: 66.17% and 64.78%
Human platelets [1]; 1 μg/ml collagen, concentration 10 μM, 10 µM
  Aggregation inhibition rate %: 75% and 92.95%
Human platelets [1]; Homo sapiens, Platelet, 1 μg/ml collagen, concentration 0.03 μM, read-out: Aggregation inhibition rate %
  inhibition at 0.03 µM: 13%
Human platelets [1]; [5]
  inhibition at 3 µM: 75.4%
Human platelets [1]; Homo sapiens, Platelet, 1 μg/ml collagen, concentration 10 μM, read-out: Aggregation inhibition rate %
  inhibition at 10 µM: 82.6%
Human platelets [1]; Homo sapiens, Platelet, 1 μg/ml collagen, concentration 20 μM, read-out: Aggregation inhibition rate %
  inhibition at 20 µM: 100%
Human platelets [1]; [6]
  IC50: 888 nM
Human platelets [1]; [7]
  IC50: 532 nM
Human platelets [1]; [8]
  IC50: 908 nM
Human platelets [2]; 0.5 U/ml thrombin, concentration 3 μM, 3 µM
  Aggregation inhibition rate %: 69.84% and 49.33% and 92.53%
Human platelets [2]; 0.5 U/ml thrombin, concentration 10 μM, 10 µM
  Aggregation inhibition rate %: 80.95% and 55.41%
Human platelets [2]; 0.5 U/ml thrombin, concentration 20 μM, 20 µM
  Aggregation inhibition rate %: 81.33%
Human platelets [2]; [9]
  inhibition at 0.003 µM: 0%
Human platelets [2]; [10]
  inhibition at 0.01 µM: 0%
Human platelets [2]; [11]
  inhibition at 20 µM: 95.2%
Human platelets [2]; [12]
  IC50: 851 nM
Human platelets [2]; [13]
  IC50: 4020 nM
Human platelets [2]; [14]
  IC50: 161 nM
Human platelets [3]; 10 μM ADP, concentration 0.03 μM
  Aggregation inhibition rate %: 13.69%
Human platelets [3]; [15]
  Aggregation inhibition rate %: 15.06%
Human platelets [3]; 10 μM ADP, concentration 0.3 μM
  Aggregation inhibition rate %: 20.54%
Human platelets [3]; 10 μM ADP, concentration 1 μM
  Aggregation inhibition rate %: 57.53%
Human platelets [3]; 10 μM ADP, concentration 3 μM
  Aggregation inhibition rate %: 86.30%
Human platelets [3]; [16]
  inhibition at 0.005 µM: 0%
  inhibition at 0.01 µM: 4.11%
  inhibition at 5 µM: 100%
  inhibition at 10 µM: 100%
Human platelets [3]; [17]
  inhibition at 3 µM: 100%
Human platelets [3]; [12]
  IC50: 72 nM
Human platelets [3]; [13]
  IC50: 963 nM
Human platelets [3]; [14]
  IC50: 261 nM
